In patent publication US5824676A, “5-HT2 receptor ligands” (Allelix Biopharmaceuticals Inc., priority 1996, dated 1998):

Experiments:
[1] = biological target: T1, human D4 receptor (D4.2 sub-type) (Homo sapiens, UniProt P21917, DEL265-296); experiment: Dopamine D4 Receptor Binding Assay (3H-spiperone displacement); conditions: 3H-spiperone 0.25 nM; cells stably transfected with human D4.2; 90 minutes, room temperature, pH 7.4
T1 construct: expressed in transfected cells; host or cells: HEK 298 [sic] (human embryonic kidney) cells
T1 sequence (P21917 with tags, fused parts or gaps DEL265-296): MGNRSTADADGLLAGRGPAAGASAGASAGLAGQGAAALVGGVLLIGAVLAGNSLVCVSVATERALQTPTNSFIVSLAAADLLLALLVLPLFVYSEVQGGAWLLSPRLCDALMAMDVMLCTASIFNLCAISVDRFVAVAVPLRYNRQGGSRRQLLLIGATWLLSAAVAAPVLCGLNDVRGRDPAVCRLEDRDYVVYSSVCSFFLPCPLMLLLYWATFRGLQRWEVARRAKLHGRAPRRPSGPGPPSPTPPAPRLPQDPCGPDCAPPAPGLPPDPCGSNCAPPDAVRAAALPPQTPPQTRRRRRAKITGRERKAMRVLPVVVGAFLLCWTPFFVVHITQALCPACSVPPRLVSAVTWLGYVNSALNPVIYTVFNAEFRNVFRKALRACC
Protocol: The cells were then centrifuged in a Sorval centrifuge for 10 minutes, 5000 rpm (GS3 rotor) and the pellets quickly frozen in liquid nitrogen and stored at -80° C. until used in binding assay. When used in the assay, cells were thawed on ice for 20 minutes and then 10 mL of incubation buffer (50 mM Tris, 1 mM EDTA, 4 mM MgCl2, 5 mM KCl, 1.5 mM CaCl2, 120 mM NaCl, pH7.4) was added. […] Concentration of receptor protein was determined using the Pierce BCA assay.
(§1) The incubation was started by the addition to 12×75 mm polypropylene tubes 500 μl (50 μg protein) membrane homogenate to a solution of 400 μl incubation buffer, 100 μl ([…].) ^3 H-spiperone (90 Ci/mmol, Amersham, diluted in borosilicate glass vial to) and 500 μl of test compound that was prepared from 1 mM stock dissolved in DMSO and stored at -20° C. in polypropylene cryogenic storage vials until dilution in incubation buffer in borosilicate glass vials.

5-HT2 receptor = 5-HT2 receptor (Rattus norvegicus, UniProt P14842); experiment: 5-HT2 Receptor Binding Assay (3H-ketanserin displacement)
[2] = biological target: T2, human D2 receptor (short isoform) (Homo sapiens, UniProt P14416); experiment: Dopamine D2 Receptor Binding Assay (3H-spiperone displacement); conditions: 3H-spiperone 0.25 nM; GH4C1 (rat pituitary) cells stably transfected with human D2 short; 90 minutes, room temperature, pH 7.4
T2 construct: expressed in transfected cells
Protocol: GH4 C1 (rat pituitary) cells stably transfected with the human D2 receptor (short isoform) were grown in CO2 independent media in roller bottles (1500 cm^2) for 10 days. 100 μM ZnSO4 was added to the cells (the D2 promoter being zinc inducible). After 16 hours, fresh media was added to allow the cells to recover for 24 hours. The cells were harvested using versene and then centrifuged in a Sorval centrifuge for 10 minutes, at 5000 rpm (GS3 rotor). Pellets were quickly frozen in liquid nitrogen and stored at -80° C. until used in the binding assays. When used in the assay, cells were thawed on ice for 20 minutes.
This assay employed the same procedures as the non-specific binding assay for D4 with the exception that 2 μM (final conc.) of (-) sulpiride (Research Chemicals Inc.) was used in place of dopamine.
as §1

5-HT2 receptor, sequence (P14842 whole entry, canonical isoform): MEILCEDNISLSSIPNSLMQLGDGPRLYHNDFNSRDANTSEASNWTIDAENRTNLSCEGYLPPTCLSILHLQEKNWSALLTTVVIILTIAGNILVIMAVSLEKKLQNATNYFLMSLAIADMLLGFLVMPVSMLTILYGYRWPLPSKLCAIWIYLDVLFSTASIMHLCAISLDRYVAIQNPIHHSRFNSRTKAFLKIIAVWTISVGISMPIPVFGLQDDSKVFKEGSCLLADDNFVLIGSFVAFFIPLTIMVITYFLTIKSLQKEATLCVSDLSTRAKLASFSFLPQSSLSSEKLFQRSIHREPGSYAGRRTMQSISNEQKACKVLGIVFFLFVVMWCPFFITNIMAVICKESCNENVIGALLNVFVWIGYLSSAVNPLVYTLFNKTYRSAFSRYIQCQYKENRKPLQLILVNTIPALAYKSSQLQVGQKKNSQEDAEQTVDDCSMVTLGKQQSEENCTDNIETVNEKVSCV
T2 sequence (P14416 1-414 isoform P14416-2): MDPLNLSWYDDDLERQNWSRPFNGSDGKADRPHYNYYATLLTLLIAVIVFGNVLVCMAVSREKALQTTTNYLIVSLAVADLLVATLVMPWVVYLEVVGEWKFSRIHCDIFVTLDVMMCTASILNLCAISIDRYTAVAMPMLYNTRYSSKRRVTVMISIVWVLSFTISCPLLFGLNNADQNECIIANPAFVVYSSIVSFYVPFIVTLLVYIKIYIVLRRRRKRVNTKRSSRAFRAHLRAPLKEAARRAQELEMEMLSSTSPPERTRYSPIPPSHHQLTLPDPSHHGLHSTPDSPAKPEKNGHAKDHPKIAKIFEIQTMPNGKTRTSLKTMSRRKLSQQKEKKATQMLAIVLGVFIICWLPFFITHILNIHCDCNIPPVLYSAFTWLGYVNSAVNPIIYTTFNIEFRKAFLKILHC

Row | Structure (SMILES) | Ki [1] [nM] | Ki (5-HT2 receptor) [µM] | Ki [2] [nM]
1 | CC1CN(C2=Nc3cc(Cl)ccc3Oc3ccccc32)CC(C)N1 (stereo not drawn) [8-chloro-11-(3,5-dimethyl-1-piperazinyl)-dibenz[b,f][1,4]oxazepine] | 215 | 0.0134 | 2170
2 | CC1CN(C2=Nc3ccccc3Oc3ccccc32)CC(C)N1 (stereo not drawn) [11-(3,5-dimethyl-1-piperazinyl)-dibenz[b,f][1,4]oxazepine] | 1100 | 0.368 | 6330
3 | CC1CN(C2=Nc3ccccc3Oc3ccccc32)C(C)CN1 (stereo not drawn) [11-(2,5-dimethyl-1-piperazinyl)-dibenz[b,f][1,4]oxazepine] | 4540 | 0.092 | 4890
4 | CC1CN(C2=Nc3ccccc3Nc3cc(Cl)ccc32)CC(C)N1 (stereo not drawn) [3-chloro-11-(3,5-dimethyl-1-piperazinyl)-5H-dibenz[b,e][1,4]diazepine] | 2750 | 0.024 | 14100
